Tests used:
[1] = biological target: T1, Farnesyl pyrophosphate synthase (Homo sapiens) (UniProt P14324); assay: Inhibition of human recombinant N-terminal His6-tagged FPPS transfected in Escherichia coli BL21 (DE3) cells using GPP and [3H]-IPP as substrate at 10 uM incubated for 10 mins prior to substrate addition measured after 20 mins by liquid scintillation counting analysis; format: biochemical
T1 sequence (whole entry): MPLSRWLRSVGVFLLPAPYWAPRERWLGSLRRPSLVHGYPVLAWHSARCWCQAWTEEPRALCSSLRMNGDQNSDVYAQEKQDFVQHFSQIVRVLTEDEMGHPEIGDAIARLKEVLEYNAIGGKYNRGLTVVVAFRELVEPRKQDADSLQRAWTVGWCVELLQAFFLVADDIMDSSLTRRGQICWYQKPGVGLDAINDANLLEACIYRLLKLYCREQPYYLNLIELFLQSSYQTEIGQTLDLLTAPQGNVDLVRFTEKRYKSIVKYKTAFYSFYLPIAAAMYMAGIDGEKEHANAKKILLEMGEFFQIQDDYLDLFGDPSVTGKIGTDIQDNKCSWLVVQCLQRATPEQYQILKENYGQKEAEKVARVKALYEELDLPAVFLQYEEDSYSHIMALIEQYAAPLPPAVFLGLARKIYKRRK

[2] = biological target: T2, Farnesyl pyrophosphate synthase (Homo sapiens, UniProt P14324); assay: Inhibition of human FPPS
T2 sequence (P14324 whole entry): T1 sequence (whole entry)

[3] = biological target: T2, Farnesyl pyrophosphate synthase; assay: Inhibition of human recombinant N-terminal His6-tagged FPPS transfected in Escherichia coli BL21 (DE3) cells using GPP and [3H]-IPP as substrate incubated for 10 mins prior to substrate addition measured after 20 mins by liquid scintillation counting analysis

Compound | inhibition [1] [%] | further results
CC(C)=CCC/C(C)=C/CC(C/C=C(\C)CCC=C(C)C)(P(=O)(O)O)P(=O)(O)O [DIGERANYL BISPHOSPHONATE] |  | IC50 [2]: > 10000 nM
O=P(O)(O)C(Nc1ncnc2sccc12)P(=O)(O)O | 75 | 
O=P(O)(O)C(Nc1ncnc2sc(-c3ccc4ccccc4c3)cc12)P(=O)(O)O |  | IC50 [3]: 250 nM
Cc1ccc(-c2cc3c(NC(P(=O)(O)O)P(=O)(O)O)ncnc3s2)cc1 |  | IC50 [3]: 390 nM

Now from value to compound, other results behind:

inhibition [1] [%] | Compound | further results
75 | O=P(O)(O)C(Nc1nc(-c2ccccc2)nc2sccc12)P(=O)(O)O | 
< 20 | O=P(O)(O)C(Nc1ncnc2scc(-c3ccccc3)c12)P(=O)(O)O | 
75 | O=P(O)(O)C(Nc1ncnc2sc(-c3ccccc3)cc12)P(=O)(O)O | 

Reference: ChEMBL document CHEMBL2346614, “Discovery of thienopyrimidine-based inhibitors of the human farnesyl pyrophosphate synthase--parallel synthesis of analogs via a trimethylsilyl ylidene intermediate” (Bioorg Med Chem, 2013)
